Values joined by “and” are separate entries in the source; they are usually repeats but may differ in a detail not shown here. Identical values can stand only once.
Columns and labels:
SfurOBP11 = SfurOBP11 (Sogatella furcifera, UniProt V5T6E3); assay: biochemical; assay type: binding
Summary of the method: (§1)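 Protein 2.0 µM + 1-NPN 2.0 µM, 50 mM Tris-HCl pH 7.4; competitor odorants 2, 4 … 20 µM final; read 2 min post-addition, ex 337/em 390–490 nm; n=3. K1-NPN from 1-NPN titration/Scatchard; Ki from IC50 corrected for free 1-NPN.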

SfurOBP2 = SfurOBP2 (Sogatella furcifera, UniProt V5T759); assay: biochemical; assay type: binding
Summary of the method: as §1

SfurOBP3 = SfurOBP3 (Sogatella furcifera, UniProt V5T818); assay: biochemical; assay type: binding; settings: for Fluorescence competitive binding assay, fluorescence intensity: OBP3, three replicate columns
Summary of the method: as §1

SfurOBP1 = SfurOBP1 (Sogatella furcifera, UniProt V5T8N5); assay: biochemical; assay type: binding; settings: for Fluorescence competitive binding assay, fluorescence intensity: OBP1, three replicate columns
Summary of the method: as §1

S. furcifera adults = assay: Y-tube olfactometer behavioral trials; assay type: in vivo, Sogatella furcifera; settings: odorant 50 µL/L vs hexane
Description: To test the effect of the rice odorants on the behavior of S. furcifera adults, a glass Y-tube olfactometer (inner diameter 2.0 cm, stem 13 cm, arms 10 cm, angle of arms 60°) according to the previously described ([Wang et al., 2014b]) was employed. An airtight cubic box (70 by 45 by 30 cm) was used to position Y-tube, and the Y-tube was lighted by a 30-W filament lamp 25 cm above it. Air that filtered through activated charcoal and humidified with doubly distilled water was pumped in both arms at a flow rate of 300 mL/min. Two filter paper strips (10 by 1 cm) containing 100 µL odorant source (50 µL/L) and 100 µL control hexane were placed in two holding chambers in the front of the olfactometer, respectively. A S. furcifera adult (2 days after emergence, starved for 0.5 h) was randomly chosen and placed in the stem of the Y-tube. Each insect was given 10 min to choose between the two arms of the Y-tube, the choice was noted if the planthopper reached one-half of the arms’ lengths and stayed in the arm for more than 1 min. Besides, S. furcifera was considered as having no orientation preference. Forty-five individuals were used for each compound, each insect used only once. And the dual-choice experiment was done in an environmentally controlled room (25 ± 1 °C and 50% RH). A Chi-squared test was used to analyze the behavioral assay data by using SPSS19.0 (SPSS Inc., Chicago, IL, USA) software.

Sequence of SfurOBP1 (V5T8N5 entry or part of it): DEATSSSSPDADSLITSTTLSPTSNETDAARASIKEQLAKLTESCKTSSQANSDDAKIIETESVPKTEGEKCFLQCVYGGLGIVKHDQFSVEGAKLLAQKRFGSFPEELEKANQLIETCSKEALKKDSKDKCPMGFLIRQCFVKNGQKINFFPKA
Sequence of SfurOBP11 (V5T6E3 entry or part of it): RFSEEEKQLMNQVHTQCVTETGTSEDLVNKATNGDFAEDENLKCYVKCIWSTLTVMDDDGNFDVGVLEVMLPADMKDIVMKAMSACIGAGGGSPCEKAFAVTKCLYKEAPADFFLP
Sequence of SfurOBP2 (V5T759 entry or part of it): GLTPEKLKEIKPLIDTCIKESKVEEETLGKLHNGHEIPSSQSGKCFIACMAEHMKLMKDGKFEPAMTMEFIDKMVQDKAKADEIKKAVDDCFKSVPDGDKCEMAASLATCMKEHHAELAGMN
Sequence of SfurOBP3 (V5T818 entry or part of it): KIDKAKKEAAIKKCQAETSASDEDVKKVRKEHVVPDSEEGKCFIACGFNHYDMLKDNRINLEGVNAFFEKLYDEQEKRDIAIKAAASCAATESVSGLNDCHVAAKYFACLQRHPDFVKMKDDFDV

Compound: C=C(C)C1CC=C(C)CC1 (single isomer, unassigned; (+)) [(+)-limonene]
- IC50 (SfurOBP11; SfurOBP11, protein and 1-NPN both 2.0 µM, competitor 2-20 µM, read-out: IC50): > 20 µM
- Fluorescence intensity, fluorescence competitive binding assay, OBP11 (SfurOBP11; ligand concentration 2, replicate 1): 20185
- Fluorescence intensity, fluorescence competitive binding assay, OBP11 (SfurOBP11; ligand concentration 2, replicate 2): 20635
- Fluorescence intensity, fluorescence competitive binding assay, OBP11 (SfurOBP11; ligand concentration 2, replicate 3): 20374
- Fluorescence intensity, fluorescence competitive binding assay, OBP11 (SfurOBP11; ligand concentration 4, replicate 1): 19119
- Fluorescence intensity, fluorescence competitive binding assay, OBP11 (SfurOBP11; ligand concentration 4, replicate 2): 21150
- Fluorescence intensity, fluorescence competitive binding assay, OBP11 (SfurOBP11; ligand concentration 4, replicate 3): 19404
- Fluorescence intensity, fluorescence competitive binding assay, OBP11 (SfurOBP11; ligand concentration 6, replicate 1): 20124
- Fluorescence intensity, fluorescence competitive binding assay, OBP11 (SfurOBP11; ligand concentration 6, replicate 2): 20072
- Fluorescence intensity, fluorescence competitive binding assay, OBP11 (SfurOBP11; ligand concentration 6, replicate 3): 19868
- Fluorescence intensity, fluorescence competitive binding assay, OBP11 (SfurOBP11; ligand concentration 8, replicate 1): 18585
- Fluorescence intensity, fluorescence competitive binding assay, OBP11 (SfurOBP11; ligand concentration 8, replicate 2): 21246
- Fluorescence intensity, fluorescence competitive binding assay, OBP11 (SfurOBP11; ligand concentration 8, replicate 3): 19916
- Fluorescence intensity, fluorescence competitive binding assay, OBP11 (SfurOBP11; ligand concentration 10, replicate 1): 19564
- Fluorescence intensity, fluorescence competitive binding assay, OBP11 (SfurOBP11; ligand concentration 10, replicate 2): 19568
- Fluorescence intensity, fluorescence competitive binding assay, OBP11 (SfurOBP11; ligand concentration 10, replicate 3): 19649
- Fluorescence intensity, fluorescence competitive binding assay, OBP11 (SfurOBP11; ligand concentration 12, replicate 1): 19387
- Fluorescence intensity, fluorescence competitive binding assay, OBP11 (SfurOBP11; ligand concentration 12, replicate 2): 19954
- Fluorescence intensity, fluorescence competitive binding assay, OBP11 (SfurOBP11; ligand concentration 12, replicate 3): 20491
- Fluorescence intensity, fluorescence competitive binding assay, OBP11 (SfurOBP11; ligand concentration 14, replicate 1): 19217
- Fluorescence intensity, fluorescence competitive binding assay, OBP11 (SfurOBP11; ligand concentration 14, replicate 2): 19676
- Fluorescence intensity, fluorescence competitive binding assay, OBP11 (SfurOBP11; ligand concentration 14, replicate 3): 19052
- Fluorescence intensity, fluorescence competitive binding assay, OBP11 (SfurOBP11; ligand concentration 16, replicate 1): 18294
- Fluorescence intensity, fluorescence competitive binding assay, OBP11 (SfurOBP11; ligand concentration 16, replicate 2): 18202
- Fluorescence intensity, fluorescence competitive binding assay, OBP11 (SfurOBP11; ligand concentration 16, replicate 3): 18385
- Fluorescence intensity, fluorescence competitive binding assay, OBP11 (SfurOBP11; ligand concentration 18, replicate 1): 17514
- Fluorescence intensity, fluorescence competitive binding assay, OBP11 (SfurOBP11; ligand concentration 18, replicate 2): 18012
- Fluorescence intensity, fluorescence competitive binding assay, OBP11 (SfurOBP11; ligand concentration 18, replicate 3): 18287
- Fluorescence intensity, fluorescence competitive binding assay, OBP11 (SfurOBP11; ligand concentration 20, replicate 1): 16634
- Fluorescence intensity, fluorescence competitive binding assay, OBP11 (SfurOBP11; ligand concentration 20, replicate 2): 17062
- Fluorescence intensity, fluorescence competitive binding assay, OBP11 (SfurOBP11; ligand concentration 20, replicate 3): 17452
- IC50 (SfurOBP2; SfurOBP2, protein and 1-NPN both 2.0 µM, competitor 2-20 µM, read-out: IC50): > 20 µM
- Fluorescence competitive binding assay, OBP2 (raw fluorescence reading) (SfurOBP2; ligand concentration 2 (unit not given), replicate column 1 of 3): 18785
- Fluorescence competitive binding assay, OBP2 (raw fluorescence reading) (SfurOBP2; ligand concentration 2 (unit not given), replicate column 2 of 3): 17646
- Fluorescence competitive binding assay, OBP2 (raw fluorescence reading) (SfurOBP2; ligand concentration 2 (unit not given), replicate column 3 of 3): 18955
- Fluorescence competitive binding assay, OBP2 (raw fluorescence reading) (SfurOBP2; ligand concentration 4 (unit not given), replicate column 1 of 3): 19168
- Fluorescence competitive binding assay, OBP2 (raw fluorescence reading) (SfurOBP2; ligand concentration 4 (unit not given), replicate column 2 of 3): 18029
- Fluorescence competitive binding assay, OBP2 (raw fluorescence reading) (SfurOBP2; ligand concentration 4 (unit not given), replicate column 3 of 3): 18599
- Fluorescence competitive binding assay, OBP2 (raw fluorescence reading) (SfurOBP2; ligand concentration 6 (unit not given), replicate column 1 of 3): 18726
- Fluorescence competitive binding assay, OBP2 (raw fluorescence reading) (SfurOBP2; ligand concentration 6 (unit not given), replicate column 2 of 3): 17846
- Fluorescence competitive binding assay, OBP2 (raw fluorescence reading) (SfurOBP2; ligand concentration 6 (unit not given), replicate column 3 of 3): 18376
- Fluorescence competitive binding assay, OBP2 (raw fluorescence reading) (SfurOBP2; ligand concentration 8 (unit not given), replicate column 1 of 3): 17673
- Fluorescence competitive binding assay, OBP2 (raw fluorescence reading) (SfurOBP2; ligand concentration 8 (unit not given), replicate column 2 of 3): 18323
- Fluorescence competitive binding assay, OBP2 (raw fluorescence reading) (SfurOBP2; ligand concentration 8 (unit not given), replicate column 3 of 3): 17474
- Fluorescence competitive binding assay, OBP2 (raw fluorescence reading) (SfurOBP2; ligand concentration 10 (unit not given), replicate column 1 of 3): 16329
- Fluorescence competitive binding assay, OBP2 (raw fluorescence reading) (SfurOBP2; ligand concentration 10 (unit not given), replicate column 2 of 3): 16489
- Fluorescence competitive binding assay, OBP2 (raw fluorescence reading) (SfurOBP2; ligand concentration 10 (unit not given), replicate column 3 of 3): 16675
- Fluorescence competitive binding assay, OBP2 (raw fluorescence reading) (SfurOBP2; ligand concentration 12 (unit not given), replicate column 1 of 3): 16493
- Fluorescence competitive binding assay, OBP2 (raw fluorescence reading) (SfurOBP2; ligand concentration 12 (unit not given), replicate column 2 of 3): 16176
- Fluorescence competitive binding assay, OBP2 (raw fluorescence reading) (SfurOBP2; ligand concentration 12 (unit not given), replicate column 3 of 3): 16335
- Fluorescence competitive binding assay, OBP2 (raw fluorescence reading) (SfurOBP2; ligand concentration 14 (unit not given), replicate column 1 of 3): 13873
- Fluorescence competitive binding assay, OBP2 (raw fluorescence reading) (SfurOBP2; ligand concentration 14 (unit not given), replicate column 2 of 3): 13950
- Fluorescence competitive binding assay, OBP2 (raw fluorescence reading) (SfurOBP2; ligand concentration 14 (unit not given), replicate column 3 of 3): 13912
- Fluorescence competitive binding assay, OBP2 (raw fluorescence reading) (SfurOBP2; ligand concentration 16 (unit not given), replicate column 1 of 3): 12506
- Fluorescence competitive binding assay, OBP2 (raw fluorescence reading) (SfurOBP2; ligand concentration 16 (unit not given), replicate column 2 of 3): 13445
- Fluorescence competitive binding assay, OBP2 (raw fluorescence reading) (SfurOBP2; ligand concentration 16 (unit not given), replicate column 3 of 3): 12627
- Fluorescence competitive binding assay, OBP2 (raw fluorescence reading) (SfurOBP2; ligand concentration 18 (unit not given), replicate column 1 of 3): 13201
- Fluorescence competitive binding assay, OBP2 (raw fluorescence reading) (SfurOBP2; ligand concentration 18 (unit not given), replicate column 2 of 3): 13156
- Fluorescence competitive binding assay, OBP2 (raw fluorescence reading) (SfurOBP2; ligand concentration 18 (unit not given), replicate column 3 of 3): 13110
- Fluorescence competitive binding assay, OBP2 (raw fluorescence reading) (SfurOBP2; ligand concentration 20 (unit not given), replicate column 1 of 3): 12573
- Fluorescence competitive binding assay, OBP2 (raw fluorescence reading) (SfurOBP2; ligand concentration 20 (unit not given), replicate column 2 of 3): 13554
- Fluorescence competitive binding assay, OBP2 (raw fluorescence reading) (SfurOBP2; ligand concentration 20 (unit not given), replicate column 3 of 3): 12438
- Fluorescence competitive binding assay, fluorescence intensity (SfurOBP3; ligand concentration 2): 51848 and 49151 and 50500
- Fluorescence competitive binding assay, fluorescence intensity (SfurOBP3; ligand concentration 4): 50802 and 50041 and 48259
- Fluorescence competitive binding assay, fluorescence intensity (SfurOBP3; ligand concentration 6): 50158 and 49686 and 49223
- Fluorescence competitive binding assay, fluorescence intensity (SfurOBP3; ligand concentration 8): 48228 and 50693 and 49450
- Fluorescence competitive binding assay, fluorescence intensity (SfurOBP3; ligand concentration 10): 46402 and 47349 and 46178
- Fluorescence competitive binding assay, fluorescence intensity (SfurOBP3; ligand concentration 12): 39434 and 38976 and 40288
- Fluorescence competitive binding assay, fluorescence intensity (SfurOBP3; ligand concentration 14): 38805 and 38818 and 38804
- Fluorescence competitive binding assay, fluorescence intensity (SfurOBP3; ligand concentration 16): 34272 and 34325 and 34139
- Fluorescence competitive binding assay, fluorescence intensity (SfurOBP3; ligand concentration 18): 33102 and 34070 and 35044
- Fluorescence competitive binding assay, fluorescence intensity (SfurOBP3; ligand concentration 20): 32236 and 31361 and 31799
- IC50 (SfurOBP3; SfurOBP3, protein and 1-NPN both 2.0 µM, competitor 2-20 µM, read-out: IC50): > 20 µM
- Fluorescence competitive binding assay, fluorescence intensity (SfurOBP1; ligand concentration 2 (μM)): 5110 and 5104 and 5112
- Fluorescence competitive binding assay, fluorescence intensity (SfurOBP1; ligand concentration 4 (μM)): 5716 and 6377 and 5308
- Fluorescence competitive binding assay, fluorescence intensity (SfurOBP1; ligand concentration 6 (μM)): 6462 and 7662 and 6319
- Fluorescence competitive binding assay, fluorescence intensity (SfurOBP1; ligand concentration 8 (μM)): 6113 and 5754 and 14807
- Fluorescence competitive binding assay, fluorescence intensity (SfurOBP1; ligand concentration 10 (μM)): 5995 and 6375 and 7413
- Fluorescence competitive binding assay, fluorescence intensity (SfurOBP1; ligand concentration 12 (μM)): 5970 and 7970 and 8226
- Fluorescence competitive binding assay, fluorescence intensity (SfurOBP1; ligand concentration 14 (μM)): 5770 and 8418 and 5488
- Fluorescence competitive binding assay, fluorescence intensity (SfurOBP1; ligand concentration 16 (μM)): 4972 and 5953 and 5038
- Fluorescence competitive binding assay, fluorescence intensity (SfurOBP1; ligand concentration 18 (μM)): 6525 and 7403 and 8592
- Fluorescence competitive binding assay, fluorescence intensity (SfurOBP1; ligand concentration 20 (μM)): 7343 and 8136 and 7739
- IC50 (SfurOBP1; SfurOBP1, protein and 1-NPN both 2.0 µM, competitor 2-20 µM, read-out: IC50): > 20 µM
- behavioral response of S. furcifera (in words) (S. furcifera adults): strongly attracted
- number of insects choosing hexane arm (S. furcifera adults; adults): 7
- number of insects choosing volatilies arm (S. furcifera adults; adults): 16
- number of insects failed (no choice) (S. furcifera adults; adults): 17

— PMC6409085, “Three odorant-binding proteins are involved in the behavioral response of Sogatella furcifera to rice plant volatiles” (PeerJ, 2019)
